Data reported in publication PMC5047629, “Synthesis, Pharmacological Profile and Docking Studies of New Sulfonamides Designed as Phosphodiesterase-4 Inhibitors” (PLoS ONE, 2016).

How the values were obtained:
[1] = system: PDE3; assay: PDE3 activity inhibition; type: biochemical
[2] = system: A/J mice; assay: LPS-induced lung inflammation and airway hyper-reactivity; type: in vivo; details: LASSBio-448 2.5 and 10 mg/kg oral, cilomilast 1 mg/kg oral, 1 h before LPS, 24 h post-challenge
Experimental: A/J mice were anesthetized with isoflurane aerosol and then challenged with LPS (25μg/25 μL) or phosphate buffered solution (PBS) by intranasal instillation as reported. The analyses were performed 24 h after stimulation. Treatment with LASSBio-448 (2.5–10 mg/kg/mice) or cilomilast (1 mg/kg) was performed orally, 1 h before LPS exposure. LASSBio-448 was dissolved in 0.2% Tween 80, while cilomilast was dissolved in 1 M NaOH and further neutralized with 1 N HCl, before adjusting the final volume with 0.9% NaCl solution (saline). The substances were dissolved immediately before use.
Airflow and transpulmonary pressure were recorded with a Buxco pulmonary mechanics processing system (Buxco Electronics, Sharon, CT), which calculated resistance (cmH2O.s/ml) and dynamic lung compliance (mL/cmH2O) in each breath cycle. Elastance was calculated as the inverse of compliance values. Mice were anesthetized with nembutal (60 mg/kg), and the neuromuscular activity was blocked with bromide pancuronium (1 mg/kg). Animals were allowed to stabilize for 5 min and increasing concentrations of methacholine (3–27 mg/mL) were aerosolized for 5 min each. Baseline pulmonary parameters were assessed with aerosolized phosphate buffer solution (PBS).
The MPO activity present in the lung tissue was colorimetrically determined as described by Hirano (1996), with minor changes. Briefly, after lung perfusion with 20 mM EDTA in 0.9% saline, lung samples were homogenized in Hank´s balanced solution (HBSS) at pH 7.4. The homogenates were centrifuged for 10 min at 1300 xg and 4°C. Red blood cells were removed by hypotonic and hypertonic lysis and suspended cells were re-centrifuged as described above. The pellet was then suspended in HBSS at pH 7.4 containing 0.5% hexadecyltrimethyl ammonium bromide (HTAB). The homogenates were centrifuged for 30 min at 12500 xg and 4°C. The supernatants were then collected and incubated with 0.167 mg/mL of ortho-dianisidine dihydrochloride for 15 min at 37°C, after which 0.0006% H2O2 in 50 mM phosphate buffer at pH 6 was added. The reaction was stopped 10 min later by adding 50 μL of 1% sodium azide. The measurement was done at 460 nm using the SpectraMax M5 microplate reader (Molecular Devices).

[3] = system: A/J mice; assay: Duration of xylazine/ketamine anesthesia (behavioral correlate of emesis); type: in vivo; details: 5.8 μmol/kg oral; n = 5; P<0.01
Experimental: This assessment was carried out as previously reported. […] The animals were placed in dorsal position and their spontaneous return to the prone position was used as an endpoint to determine anesthesia duration.

Cc1[nH]c(=O)c(C#N)cc1-c1ccncc1 [milrinone, reference compound]
IC50 [1]: 3.2 µM

COc1ccc([C@]2(C#N)CC[C@@H](C(=O)O)CC2)cc1OC1CCCC1 [cilomilast, reference compound]
LPS-induced airway hyper-reactivity (lung elastance after methacholine 3–27 mg/ml) ([2]; Fig 9A): blockade
neutrophil infiltration into the lung tissue (MPO activity) ([2]; Fig 9B): blockade
reduction of sleep time (duration of xylazine/ketamine anesthesia) [3]: 28.4%
